The record followed here is patent publication US20220110933A1, “METHODS OF TREATING DISEASE WITH MAGL INHIBITORS” (H. Lundbeck A/S, priority 2019, published 2022).

Data set [1] concerns L-DOPA induced dyskinesia in MPTP-lesioned cynomolgus macaques. In words: MPTP-lesioned macaque model of L-DOPA induced dyskinesia (LID). In kind it is in vivo, cynomolgus macaque. To be noted: for reduction in median peak-dose dyskinesia after L-DOPA administration: single dose 2 h before L-DOPA, 0-2 h post L-DOPA. Here is the method:
The study utilized 8 female MPTP-lesioned cynomolgus macaques (10-15 years in age) that have received chronic repeat-treatment with L-DOPA and manifest stable and reproducible dyskinesia, of choreic and dystonic nature, in response to subsequent L-DOPA treatments.
A MGLL inhibitor, Compound 21, (3, 10 and 30 mg/kg), reference drug amantadine (10 mg/kg) and vehicle were administered by oral gavage as a single dose 2 h before a high-dose of L-DOPA (administered as Madopar™). The L-DOPA dose individualized for each animal is one that induced robust and reproducible anti-parkinsonian effects lasting ˜3-4 h but compromised by disabling dyskinesia. The animals were video-recorded for a 6 h period following L-DOPA administration and the effects of each treatment on dyskinesia, parkinsonian disability, duration and quality of anti-parkinsonian benefit (on-time) were scored blinded by a neurologist. Dyskinesia was scored using the non-human primate dyskinesia rating scale (NHPDysRS) and disability was scored using the monkey parkinsonian disability rating scale (mPDRS).
The study design was an ascending dose crossover with all animals receiving each treatment in the order of vehicle, 10 mg/kg amantadine, 3 mg/kg Compound 21, 10 mg/kg Compound 21, and 30 mg/kg Compound 21.

The nature of data set [2]: Plasma exposure and half-life in MPTP-lesioned macaques. In kind it is in vivo, cynomolgus macaque. To be noted: cynomolgus monkey.

In the case of `NC12CC3CC(CC(C3)C1)C2` [Amantadine, amantadine, reference compound], the “reduction in median peak-dose dyskinesia after L-DOPA administration” value in data set [1] (10 mg/kg p.o.) is 29%. In addition, in data set [1] (10 mg/kg p.o., 0-2 h post L-DOPA administration totals, P<0.05), the parkinsonian disability entry is “mild and statistically significant worsening”. This compound also showed a concentration at 2 h in data set [2] (plasma, oral, 10 mg/kg p.o., 2 h post-dose) of 1300 ng/mL. For the same compound, the concentration at 8 h in data set [2] (plasma, oral, 10 mg/kg p.o., 8 h post-dose) stood at 1500 ng/mL.
As usually defined, the half-life is the time needed for the level to fall by half in the phase considered. Low values mean fast loss, high ones slow loss. Regarding `O=C(OC(C(F)(F)F)C(F)(F)F)N1CCN(Cc2ccc(Cl)cc2N2CC3CCC(C2)O3)CC1` [Compound 21, 1,1,1,3,3,3-Hexafluoropropan-2-yl 4-(2-(8-oxa-3-azabicyclo[3.2.1]octan-3-yl)-4-chlorobenzyl)piperazine-1-carboxylate], the “dyskinesia in the 1-2 h post L-DOPA interval” value in data set [1] (10 mg/kg p.o.) is given as “significant reduction”. Further, the “reduction in median peak-dose dyskinesia after L-DOPA administration” value is on record as 45% in data set [1] (10 mg/kg p.o.) and 35% in data set [1] (30 mg/kg p.o.). Further, the “statistical significance of reduction in 0-2 hour total dyskinesia scores” value in data set [1] (3, 10 and 30 mg/kg p.o.) is given as “did not reach statistical significance”. Further, the “median peak dose dyskinesia induced by L-DOPA administration” value in data set [1] (3, 10 and 30 mg/kg p.o., 0-2 h post L-DOPA totals) is listed as “dose-dependently reduced”. Further, the “anti-dyskinetic effects (overall)” value in data set [1] (MPTP-lesioned macaque model of L-DOPA induced dyskinesia) was “robust anti-dyskinetic effects”. In addition, the “benefit on dystonia and chorea” value in data set [1] (data not shown) was “evidence of benefit on both dystonia and chorea”. In data set [1] (versus amantadine 10 mg/kg), the “therapeutic effects on median dyskinesia ratings compared with amantadine” value is on record as “of greater magnitude”. The half-life in data set [2] (in vivo) is 960 to 2040 min.
